From ChEMBL document CHEMBL4507300 (2021)

What was measured:
[1] = target: Cyclin-dependent kinase 2 (Homo sapiens) (UniProt P24941); conditions: Compound concentration 1000.0 nM
[2] = target: MAP kinase-interacting serine/threonine-protein kinase 2 (Homo sapiens) (UniProt Q9HBH9); conditions: Compound concentration 1000.0 nM
[3] = target: Myosin light chain kinase, smooth muscle (Homo sapiens) (UniProt Q15746); conditions: Compound concentration 1000.0 nM
[4] = target: Casein kinase I isoform gamma-1 (Homo sapiens) (UniProt Q9HCP0); conditions: Compound concentration 1000.0 nM
[5] = target: Tyrosine-protein kinase ITK/TSK (Homo sapiens) (UniProt Q08881); conditions: Compound concentration 1000.0 nM
[6] = target: Serine/threonine-protein kinase RIO2 (Homo sapiens) (UniProt Q9BVS4); conditions: Compound concentration 1000.0 nM
Serine/threonine-protein kinase RIO2 (Homo sapiens), sequence (Q9BVS4 whole entry, looked up): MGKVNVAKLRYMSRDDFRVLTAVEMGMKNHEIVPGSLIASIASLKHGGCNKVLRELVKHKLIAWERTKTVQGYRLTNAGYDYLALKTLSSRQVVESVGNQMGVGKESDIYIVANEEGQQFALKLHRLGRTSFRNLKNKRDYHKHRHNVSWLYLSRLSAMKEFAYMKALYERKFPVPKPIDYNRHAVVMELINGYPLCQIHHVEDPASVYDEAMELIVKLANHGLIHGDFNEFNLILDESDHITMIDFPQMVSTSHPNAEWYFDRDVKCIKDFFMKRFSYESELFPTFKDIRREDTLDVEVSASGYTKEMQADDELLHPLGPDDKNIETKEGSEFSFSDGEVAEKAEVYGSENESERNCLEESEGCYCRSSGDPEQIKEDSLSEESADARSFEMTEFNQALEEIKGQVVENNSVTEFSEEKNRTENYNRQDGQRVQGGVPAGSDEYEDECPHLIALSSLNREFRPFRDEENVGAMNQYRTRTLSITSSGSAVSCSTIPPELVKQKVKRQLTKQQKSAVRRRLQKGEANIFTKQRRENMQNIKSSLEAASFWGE

[7] = target: G protein-coupled receptor kinase 4 (Homo sapiens) (UniProt P32298); conditions: Compound concentration 1000.0 nM
[8] = target: Protein kinase C delta type (Homo sapiens) (UniProt Q05655); conditions: Compound concentration 1000.0 nM
[9] = target: Serine/threonine-protein kinase PLK3 (Homo sapiens) (UniProt Q9H4B4); conditions: Compound concentration 1000.0 nM
[10] = target: Serine/threonine-protein kinase NLK (Homo sapiens) (UniProt Q9UBE8); conditions: Compound concentration 1000.0 nM
[11] = target: Ribosomal protein S6 kinase alpha-3 (Homo sapiens) (UniProt P51812); conditions: Compound concentration 1000.0 nM
[12] = target: Dual specificity protein kinase TTK (Homo sapiens) (UniProt P33981); conditions: Compound concentration 1000.0 nM
[13] = target: Serine/threonine-protein kinase 16 (Homo sapiens) (UniProt O75716); conditions: Compound concentration 1000.0 nM
[14] = target: Serine/threonine-protein kinase 38 (Homo sapiens) (UniProt Q15208); conditions: Compound concentration 1000.0 nM
Serine/threonine-protein kinase 38 (Homo sapiens), sequence (Q15208 2-465 limits assumed): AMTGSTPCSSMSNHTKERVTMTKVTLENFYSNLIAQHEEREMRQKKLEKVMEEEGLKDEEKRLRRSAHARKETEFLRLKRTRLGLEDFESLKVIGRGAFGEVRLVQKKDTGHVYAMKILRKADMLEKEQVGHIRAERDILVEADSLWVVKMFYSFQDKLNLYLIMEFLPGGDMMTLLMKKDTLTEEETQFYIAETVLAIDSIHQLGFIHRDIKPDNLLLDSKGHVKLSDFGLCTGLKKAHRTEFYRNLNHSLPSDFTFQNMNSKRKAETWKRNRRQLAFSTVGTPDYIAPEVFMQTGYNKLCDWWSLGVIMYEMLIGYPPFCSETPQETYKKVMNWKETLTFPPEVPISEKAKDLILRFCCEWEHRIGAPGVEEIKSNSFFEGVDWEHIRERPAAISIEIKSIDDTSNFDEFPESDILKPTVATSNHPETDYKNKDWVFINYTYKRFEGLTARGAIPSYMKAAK

[15] = target: Mitogen-activated protein kinase kinase kinase 19 (Homo sapiens) (UniProt Q56UN5); conditions: Compound concentration 1000.0 nM
Mitogen-activated protein kinase kinase kinase 19 (Homo sapiens), sequence (Q56UN5 whole entry): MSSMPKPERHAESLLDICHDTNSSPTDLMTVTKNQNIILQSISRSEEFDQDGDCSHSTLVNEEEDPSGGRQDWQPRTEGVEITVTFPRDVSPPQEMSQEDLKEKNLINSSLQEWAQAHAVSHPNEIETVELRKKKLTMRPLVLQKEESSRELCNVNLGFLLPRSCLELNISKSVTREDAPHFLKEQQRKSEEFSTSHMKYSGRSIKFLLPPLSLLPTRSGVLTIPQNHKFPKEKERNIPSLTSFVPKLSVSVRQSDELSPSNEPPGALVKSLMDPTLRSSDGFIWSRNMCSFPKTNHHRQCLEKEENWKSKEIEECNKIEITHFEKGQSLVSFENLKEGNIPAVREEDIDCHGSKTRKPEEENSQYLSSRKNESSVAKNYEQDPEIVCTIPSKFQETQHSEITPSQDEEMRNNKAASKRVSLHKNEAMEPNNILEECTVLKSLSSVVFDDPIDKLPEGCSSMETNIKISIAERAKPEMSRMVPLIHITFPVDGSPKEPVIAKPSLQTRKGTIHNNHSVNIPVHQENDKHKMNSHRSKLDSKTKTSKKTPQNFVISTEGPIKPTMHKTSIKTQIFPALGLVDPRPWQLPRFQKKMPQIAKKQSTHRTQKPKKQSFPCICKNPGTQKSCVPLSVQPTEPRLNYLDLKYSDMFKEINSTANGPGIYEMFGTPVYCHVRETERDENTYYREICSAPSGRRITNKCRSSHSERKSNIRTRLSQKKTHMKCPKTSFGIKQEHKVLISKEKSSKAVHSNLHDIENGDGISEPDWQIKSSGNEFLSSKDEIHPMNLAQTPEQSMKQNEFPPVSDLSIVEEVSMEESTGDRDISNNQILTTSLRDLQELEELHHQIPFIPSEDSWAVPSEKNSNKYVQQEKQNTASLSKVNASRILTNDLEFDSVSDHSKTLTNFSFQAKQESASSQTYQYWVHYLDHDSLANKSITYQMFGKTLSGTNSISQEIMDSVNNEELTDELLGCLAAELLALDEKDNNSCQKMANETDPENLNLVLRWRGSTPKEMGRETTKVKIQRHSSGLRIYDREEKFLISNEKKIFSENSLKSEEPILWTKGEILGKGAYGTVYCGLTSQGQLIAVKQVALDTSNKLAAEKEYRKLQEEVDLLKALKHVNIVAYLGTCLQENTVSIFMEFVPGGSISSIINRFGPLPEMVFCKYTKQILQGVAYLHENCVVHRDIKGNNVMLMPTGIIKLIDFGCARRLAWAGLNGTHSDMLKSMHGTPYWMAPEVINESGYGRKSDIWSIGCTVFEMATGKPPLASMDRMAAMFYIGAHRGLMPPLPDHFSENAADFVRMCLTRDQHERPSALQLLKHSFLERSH

[16] = target: Alpha-1B adrenergic receptor (Homo sapiens) (UniProt P35368); conditions: Compound concentration 10.0 uM
[17] = target: D(2) dopamine receptor (Homo sapiens) (UniProt P14416); conditions: Compound concentration 10.0 uM
[18] = target: Aurora kinase C (Homo sapiens) (UniProt Q9UQB9); conditions: Compound concentration 1000.0 nM
[19] = target: Ephrin type-A receptor 2 (Homo sapiens) (UniProt P29317); conditions: Compound concentration 1000.0 nM
[20] = target: Serine/threonine-protein kinase RIO3 (Homo sapiens) (UniProt O14730); conditions: Compound concentration 1000.0 nM
[21] = target: Serine/threonine-protein kinase BRSK1 (Homo sapiens) (UniProt Q8TDC3); conditions: Compound concentration 1000.0 nM
[22] = target: Receptor-type tyrosine-protein kinase FLT3 (Homo sapiens) (UniProt P36888); conditions: Compound concentration 1000.0 nM
[23] = target: Ephrin type-A receptor 1 (Homo sapiens) (UniProt P21709); conditions: Compound concentration 1000.0 nM
[24] = target: Cyclin-dependent kinase 18 (Homo sapiens) (UniProt Q07002); conditions: Compound concentration 1000.0 nM
[25] = test system: Mast/stem cell growth factor receptor Kit (Homo sapiens), P10721 [V559D,T670I]; conditions: Compound concentration 1000.0 nM
[26] = target: Phosphatidylinositol 4,5-bisphosphate 3-kinase catalytic subunit gamma isoform (Homo sapiens) (UniProt P48736); conditions: Compound concentration 1000.0 nM
[27] = target: Protein kinase C epsilon type (Homo sapiens) (UniProt Q02156); conditions: Compound concentration 1000.0 nM
[28] = target: Serine/threonine-protein kinase STK11 (Homo sapiens) (UniProt Q15831); conditions: Compound concentration 1000.0 nM
[29] = target: Casein kinase II subunit alpha' (Homo sapiens) (UniProt P19784); conditions: Compound concentration 1000.0 nM
[30] = test system: Tyrosine-protein kinase ABL1 (Homo sapiens), P00519 [F317I]; conditions: Compound concentration 1000.0 nM
[31] = target: Serine/threonine-protein kinase PLK1 (Homo sapiens) (UniProt P53350); conditions: Compound concentration 1000.0 nM
[32] = target: Ribosomal protein S6 kinase alpha-4 (Homo sapiens) (UniProt O75676); conditions: Compound concentration 1000.0 nM
[33] = target: Discoidin domain-containing receptor 2 (Homo sapiens) (UniProt Q16832); conditions: Compound concentration 1000.0 nM
Discoidin domain-containing receptor 2 (Homo sapiens), sequence (Q16832 whole entry, the tested form may be a part): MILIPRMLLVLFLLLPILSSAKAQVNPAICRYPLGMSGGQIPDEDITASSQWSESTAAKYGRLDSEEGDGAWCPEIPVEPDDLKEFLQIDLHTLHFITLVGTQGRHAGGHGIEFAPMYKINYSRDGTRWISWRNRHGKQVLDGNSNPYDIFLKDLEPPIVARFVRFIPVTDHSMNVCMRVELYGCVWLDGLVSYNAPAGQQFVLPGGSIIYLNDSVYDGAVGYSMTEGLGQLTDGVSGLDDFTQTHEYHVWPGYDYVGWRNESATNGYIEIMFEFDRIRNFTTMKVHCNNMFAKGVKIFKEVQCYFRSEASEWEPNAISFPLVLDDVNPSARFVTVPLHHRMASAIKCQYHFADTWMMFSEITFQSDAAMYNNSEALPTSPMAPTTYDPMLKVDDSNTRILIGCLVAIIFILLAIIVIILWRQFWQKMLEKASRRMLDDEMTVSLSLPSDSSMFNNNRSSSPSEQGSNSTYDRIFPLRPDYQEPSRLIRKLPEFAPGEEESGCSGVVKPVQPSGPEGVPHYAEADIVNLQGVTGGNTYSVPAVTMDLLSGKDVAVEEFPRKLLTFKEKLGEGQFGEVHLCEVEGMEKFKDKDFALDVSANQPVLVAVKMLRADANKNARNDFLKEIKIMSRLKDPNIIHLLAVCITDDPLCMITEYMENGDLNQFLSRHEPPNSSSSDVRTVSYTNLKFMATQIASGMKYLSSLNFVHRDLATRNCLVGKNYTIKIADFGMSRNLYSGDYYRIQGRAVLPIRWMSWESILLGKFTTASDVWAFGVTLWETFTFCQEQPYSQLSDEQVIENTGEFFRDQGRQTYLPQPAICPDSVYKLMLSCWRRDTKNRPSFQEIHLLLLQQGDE

[34] = target: Serine/threonine-protein kinase Nek3 (Homo sapiens) (UniProt P51956); conditions: Compound concentration 1000.0 nM
[35] = target: Tyrosine-protein kinase TXK (Homo sapiens) (UniProt P42681); conditions: Compound concentration 1000.0 nM
[36] = target: Serine/threonine-protein kinase MRCK alpha (Homo sapiens) (UniProt Q5VT25); conditions: Compound concentration 1000.0 nM
[37] = test system: Phosphatidylinositol 4,5-bisphosphate 3-kinase catalytic subunit alpha isoform (Homo sapiens), P42336 [E542K]; conditions: Compound concentration 1000.0 nM
[38] = target: Serine/threonine-protein kinase Nek1 (Homo sapiens) (UniProt Q96PY6); conditions: Compound concentration 1000.0 nM
[39] = target: Ribosomal protein S6 kinase alpha-2 (Homo sapiens) (UniProt Q15349); conditions: Compound concentration 1000.0 nM
[40] = target: Tyrosine-protein kinase receptor Tie-1 (Homo sapiens) (UniProt P35590); conditions: Compound concentration 1000.0 nM
Tyrosine-protein kinase receptor Tie-1 (Homo sapiens), sequence (P35590 whole entry): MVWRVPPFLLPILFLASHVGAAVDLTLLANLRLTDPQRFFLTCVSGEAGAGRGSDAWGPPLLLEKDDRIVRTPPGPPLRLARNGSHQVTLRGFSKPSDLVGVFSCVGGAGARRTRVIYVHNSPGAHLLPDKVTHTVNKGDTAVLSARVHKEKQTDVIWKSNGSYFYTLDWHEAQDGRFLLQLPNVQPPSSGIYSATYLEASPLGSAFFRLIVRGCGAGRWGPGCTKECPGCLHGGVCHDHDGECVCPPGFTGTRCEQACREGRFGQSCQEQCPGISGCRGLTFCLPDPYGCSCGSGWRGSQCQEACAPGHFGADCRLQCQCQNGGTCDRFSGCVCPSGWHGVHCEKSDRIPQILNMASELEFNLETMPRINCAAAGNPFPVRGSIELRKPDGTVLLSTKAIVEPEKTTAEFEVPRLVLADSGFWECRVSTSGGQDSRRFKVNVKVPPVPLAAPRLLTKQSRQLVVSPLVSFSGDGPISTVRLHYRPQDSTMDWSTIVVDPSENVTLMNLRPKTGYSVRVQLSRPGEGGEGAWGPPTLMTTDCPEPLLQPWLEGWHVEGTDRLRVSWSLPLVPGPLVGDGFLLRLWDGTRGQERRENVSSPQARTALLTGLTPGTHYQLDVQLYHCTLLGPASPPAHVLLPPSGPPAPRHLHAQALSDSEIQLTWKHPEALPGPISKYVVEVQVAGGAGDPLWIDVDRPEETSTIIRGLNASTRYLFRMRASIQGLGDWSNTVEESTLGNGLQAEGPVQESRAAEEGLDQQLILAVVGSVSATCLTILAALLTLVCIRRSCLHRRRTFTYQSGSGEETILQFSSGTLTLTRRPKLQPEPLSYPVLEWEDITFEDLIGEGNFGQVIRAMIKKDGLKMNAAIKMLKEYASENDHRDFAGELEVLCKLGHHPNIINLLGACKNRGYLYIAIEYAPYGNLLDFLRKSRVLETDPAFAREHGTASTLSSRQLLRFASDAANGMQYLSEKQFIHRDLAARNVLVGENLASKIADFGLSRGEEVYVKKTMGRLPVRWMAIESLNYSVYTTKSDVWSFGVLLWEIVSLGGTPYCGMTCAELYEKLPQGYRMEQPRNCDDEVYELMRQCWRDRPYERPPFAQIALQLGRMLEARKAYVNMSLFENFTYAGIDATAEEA

[41] = target: Mitogen-activated protein kinase 7 (Homo sapiens) (UniProt Q13164); conditions: Compound concentration 1000.0 nM
[42] = target: Beta-2 adrenergic receptor (Homo sapiens) (UniProt P07550); conditions: Compound concentration 10.0 uM
[43] = test system: Epidermal growth factor receptor (Homo sapiens), P00533 [T790M]; conditions: Compound concentration 1000.0 nM
[44] = target: Rhodopsin kinase GRK7 (Homo sapiens) (UniProt Q8WTQ7); conditions: Compound concentration 1000.0 nM
[45] = target: Calcium/calmodulin-dependent protein kinase type II subunit delta (Homo sapiens) (UniProt Q13557); conditions: Compound concentration 1000.0 nM
Calcium/calmodulin-dependent protein kinase type II subunit delta (Homo sapiens), sequence (Q13557 whole entry): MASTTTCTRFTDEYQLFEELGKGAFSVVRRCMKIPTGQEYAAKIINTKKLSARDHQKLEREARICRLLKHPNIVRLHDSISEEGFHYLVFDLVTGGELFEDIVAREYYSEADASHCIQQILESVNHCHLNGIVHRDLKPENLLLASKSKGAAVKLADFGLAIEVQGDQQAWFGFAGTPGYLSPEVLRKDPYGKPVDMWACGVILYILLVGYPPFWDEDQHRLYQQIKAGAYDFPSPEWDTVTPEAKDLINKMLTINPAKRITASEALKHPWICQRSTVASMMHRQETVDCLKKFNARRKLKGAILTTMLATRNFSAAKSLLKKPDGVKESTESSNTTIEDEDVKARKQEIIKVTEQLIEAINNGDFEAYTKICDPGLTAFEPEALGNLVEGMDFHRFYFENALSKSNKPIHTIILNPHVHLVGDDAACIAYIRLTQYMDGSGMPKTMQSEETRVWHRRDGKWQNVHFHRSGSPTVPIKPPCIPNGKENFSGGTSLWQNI

COc1cccc(CNC(=O)c2nc3scc(COCc4ccc(C(=O)O)cc4)c3c(=O)[nH]2)c1 [T-26c]
inactive: residual activity [1] 100% | residual activity [2] 73.2% | residual activity [3] 100% | residual activity [4] 100% | residual activity [5] 86.8% | residual activity [6] 72.4% | residual activity [7] 72.1% | residual activity [8] 87.7% | residual activity [9] 65.3% | residual activity [10] 80.3% | residual activity [11] 56.5% | residual activity [12] 92.8% | residual activity [13] 87.2% | residual activity [14] 72% | residual activity [15] 79.2% | inhibition [16] 7.58% | inhibition [17] 7.09% | residual activity [18] 67.3% | residual activity [19] 100% | residual activity [20] 63.2% | residual activity [21] 100% | residual activity [22] 62.5% | residual activity [23] 79.9% | residual activity [24] 100% | residual activity [25] 100% | residual activity [26] 76.8% | residual activity [27] 62% | residual activity [28] 97.2% | residual activity [29] 79.4% | residual activity [30] 62.4% | residual activity [31] 54.1% | residual activity [32] 100% | residual activity [33] 98.9% | residual activity [34] 78.1% | residual activity [35] 87.7% | residual activity [36] 100% | residual activity [37] 76.1% | residual activity [38] 100% | residual activity [39] 100% | residual activity [40] 100% | residual activity [41] 99.3% | inhibition [42] 25.4% | residual activity [43] 92.1% | residual activity [44] 67% | residual activity [45] 100%
